Measurements from ChEMBL document CHEMBL1641539 (Bioorg Med Chem Lett, 2011).

Key:
[1] = biological target: Serine/threonine-protein kinase Nek2 (Homo sapiens) (UniProt P51955); assay: Inhibition of human NEK2 at 10 uM after 60 mins by TR-FRET assay; values are per cent of control
[2] = biological target: Serine/threonine-protein kinase NLK (Homo sapiens) (UniProt Q9UBE8); assay: Inhibition of human NLK at 10 uM after 60 mins by TR-FRET assay; values are per cent of control
[3] = test system: Tyrosine-protein kinase ABL1 (Homo sapiens), P00519 [Q252H]; assay: Inhibition of human Abl Q252H mutant at 10 uM after 60 mins by TR-FRET assay; values are per cent of control
[4] = test system: Fibroblast growth factor receptor 2 (Homo sapiens), P21802 [N549H]; assay: Inhibition of human FGFR2 N549H mutant at 10 uM after 60 mins by TR-FRET assay; values are per cent of control
[5] = biological target: T1, Serine/threonine-protein kinase Chk1 (Homo sapiens) (UniProt O14757); assay: Inhibition of human CHK1 at 10 uM after 60 mins by TR-FRET assay; values are per cent of control
T1 sequence (whole entry): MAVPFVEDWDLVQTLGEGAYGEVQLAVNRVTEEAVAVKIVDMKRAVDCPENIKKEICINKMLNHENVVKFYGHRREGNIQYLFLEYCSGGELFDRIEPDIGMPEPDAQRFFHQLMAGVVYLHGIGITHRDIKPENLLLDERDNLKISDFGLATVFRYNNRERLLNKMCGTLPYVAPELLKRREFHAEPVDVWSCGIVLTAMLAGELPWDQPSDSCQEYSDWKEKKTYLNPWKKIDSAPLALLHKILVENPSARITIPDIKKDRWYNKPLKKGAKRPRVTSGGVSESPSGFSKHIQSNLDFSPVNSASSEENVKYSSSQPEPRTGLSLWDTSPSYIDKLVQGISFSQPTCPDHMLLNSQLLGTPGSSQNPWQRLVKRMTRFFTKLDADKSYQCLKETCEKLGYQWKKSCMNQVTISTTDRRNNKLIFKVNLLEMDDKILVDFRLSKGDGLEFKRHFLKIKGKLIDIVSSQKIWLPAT

[6] = test system: Fibroblast growth factor receptor 1 (Homo sapiens), P11362 [V561M]; assay: Inhibition of human FGFR1 V561M mutant at 10 uM after 60 mins by TR-FRET assay; values are per cent of control
[7] = biological target: Inhibitor of nuclear factor kappa-B kinase subunit beta (Homo sapiens) (UniProt O14920); assay: Inhibition of human IKK-beta at 10 uM after 60 mins by TR-FRET assay; values are per cent of control
[8] = biological target: Vascular endothelial growth factor receptor 3 (Homo sapiens) (UniProt P35916); assay: Inhibition of human Flt4 at 10 uM after 60 mins by TR-FRET assay; values are per cent of control
[9] = biological target: Serine/threonine-protein kinase DCLK2 (Homo sapiens) (UniProt Q8N568); assay: Inhibition of human DCAMKL2 at 10 uM after 60 mins by TR-FRET assay; values are per cent of control
[10] = test system: Serine/threonine-protein kinase Chk2 (Homo sapiens), O96017 [I157T]; assay: Inhibition of human CHK2 I157T mutant at 10 uM after 60 mins by TR-FRET assay; values are per cent of control
[11] = biological target: Rho-associated protein kinase 1 (Homo sapiens) (UniProt Q13464); assay: Inhibition of human ROCK-1 at 10 uM after 60 mins by TR-FRET assay; values are per cent of control
[12] = biological target: Serine/threonine-protein kinase BRSK1 (Homo sapiens) (UniProt Q8TDC3); assay: Inhibition of human BrSK1 at 10 uM after 60 mins by TR-FRET assay; values are per cent of control
[13] = biological target: Tyrosine-protein kinase ITK/TSK (Homo sapiens) (UniProt Q08881); assay: Inhibition of human Itk at 10 uM after 60 mins by TR-FRET assay; details: values are per cent of control
[14] = biological target: Tyrosine-protein kinase JAK3 (Homo sapiens) (UniProt P52333); assay: Inhibition of human JAK3 at 10 uM after 60 mins by TR-FRET assay; details: values are per cent of control
[15] = biological target: Cytoplasmic tyrosine-protein kinase BMX (Homo sapiens) (UniProt P51813); assay: Inhibition of human Bmx at 10 uM after 60 mins by TR-FRET assay; values are per cent of control
[16] = biological target: MAP kinase-activated protein kinase 3 (Homo sapiens) (UniProt Q16644); assay: Inhibition of human MAPKAP-K3 at 10 uM after 60 mins by TR-FRET assay; values are per cent of control
[17] = biological target: Tyrosine-protein kinase Lyn (Mus musculus) (UniProt P25911); assay: Inhibition of mouse Lyn at 10 uM after 60 mins by TR-FRET assay; values are per cent of control
[18] = biological target: Cyclin-dependent kinase 7/ cyclin H (Homo sapiens) (UniProt P51946+P50613); assay: Inhibition of human CDK7/cyclinH/MAT1 at 10 uM after 60 mins by TR-FRET assay; values are per cent of control
[19] = biological target: Serine/threonine-protein kinase PAK 5 (Homo sapiens) (UniProt Q9P286); assay: Inhibition of human PAK5 at 10 uM after 60 mins by TR-FRET assay; values are per cent of control
[20] = biological target: Tyrosine-protein kinase Lck (Homo sapiens) (UniProt P06239); assay: Inhibition of human Lck at 10 uM after 60 mins by TR-FRET assay; details: values are per cent of control
[21] = biological target: Casein kinase II (Homo sapiens) (UniProt P67870+P68400+P19784); assay: Inhibition of human CK2 at 10 uM after 60 mins by TR-FRET assay; values are per cent of control
[22] = biological target: Serine/threonine-protein kinase MRCK beta (Homo sapiens) (UniProt Q9Y5S2); assay: Inhibition of human MRCKbeta at 10 uM after 60 mins by TR-FRET assay; values are per cent of control
[23] = biological target: Mitogen-activated protein kinase 12 (Homo sapiens) (UniProt P53778); assay: Inhibition of human SAPK3 at 10 uM after 60 mins by TR-FRET assay; details: values are per cent of control
[24] = biological target: Protein kinase C iota type (Homo sapiens) (UniProt P41743); assay: Inhibition of human PKCiota at 10 uM after 60 mins by TR-FRET assay; values are per cent of control

Sequence of Serine/threonine-protein kinase DCLK2 (Homo sapiens) (Q8N568 whole entry): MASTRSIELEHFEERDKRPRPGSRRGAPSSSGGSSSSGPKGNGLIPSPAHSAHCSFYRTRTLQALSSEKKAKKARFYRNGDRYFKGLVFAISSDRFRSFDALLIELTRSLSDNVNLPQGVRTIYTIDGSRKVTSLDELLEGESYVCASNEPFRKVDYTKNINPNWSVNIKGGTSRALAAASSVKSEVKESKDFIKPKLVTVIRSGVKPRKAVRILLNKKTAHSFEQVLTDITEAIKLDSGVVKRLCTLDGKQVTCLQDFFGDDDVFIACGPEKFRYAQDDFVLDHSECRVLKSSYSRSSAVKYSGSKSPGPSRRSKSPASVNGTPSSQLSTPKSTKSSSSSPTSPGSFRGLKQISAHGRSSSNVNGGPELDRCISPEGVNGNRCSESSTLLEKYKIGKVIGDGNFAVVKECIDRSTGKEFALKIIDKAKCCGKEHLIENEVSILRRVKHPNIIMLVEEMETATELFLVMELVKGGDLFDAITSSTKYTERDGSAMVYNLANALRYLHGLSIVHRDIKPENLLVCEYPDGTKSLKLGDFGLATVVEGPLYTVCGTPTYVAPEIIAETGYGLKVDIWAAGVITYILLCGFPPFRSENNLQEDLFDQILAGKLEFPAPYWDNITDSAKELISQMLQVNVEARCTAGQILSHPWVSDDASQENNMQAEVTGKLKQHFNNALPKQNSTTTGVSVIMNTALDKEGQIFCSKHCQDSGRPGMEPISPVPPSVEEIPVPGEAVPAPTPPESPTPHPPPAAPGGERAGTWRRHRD
Sequence of Serine/threonine-protein kinase MRCK beta (Homo sapiens) (Q9Y5S2 whole entry): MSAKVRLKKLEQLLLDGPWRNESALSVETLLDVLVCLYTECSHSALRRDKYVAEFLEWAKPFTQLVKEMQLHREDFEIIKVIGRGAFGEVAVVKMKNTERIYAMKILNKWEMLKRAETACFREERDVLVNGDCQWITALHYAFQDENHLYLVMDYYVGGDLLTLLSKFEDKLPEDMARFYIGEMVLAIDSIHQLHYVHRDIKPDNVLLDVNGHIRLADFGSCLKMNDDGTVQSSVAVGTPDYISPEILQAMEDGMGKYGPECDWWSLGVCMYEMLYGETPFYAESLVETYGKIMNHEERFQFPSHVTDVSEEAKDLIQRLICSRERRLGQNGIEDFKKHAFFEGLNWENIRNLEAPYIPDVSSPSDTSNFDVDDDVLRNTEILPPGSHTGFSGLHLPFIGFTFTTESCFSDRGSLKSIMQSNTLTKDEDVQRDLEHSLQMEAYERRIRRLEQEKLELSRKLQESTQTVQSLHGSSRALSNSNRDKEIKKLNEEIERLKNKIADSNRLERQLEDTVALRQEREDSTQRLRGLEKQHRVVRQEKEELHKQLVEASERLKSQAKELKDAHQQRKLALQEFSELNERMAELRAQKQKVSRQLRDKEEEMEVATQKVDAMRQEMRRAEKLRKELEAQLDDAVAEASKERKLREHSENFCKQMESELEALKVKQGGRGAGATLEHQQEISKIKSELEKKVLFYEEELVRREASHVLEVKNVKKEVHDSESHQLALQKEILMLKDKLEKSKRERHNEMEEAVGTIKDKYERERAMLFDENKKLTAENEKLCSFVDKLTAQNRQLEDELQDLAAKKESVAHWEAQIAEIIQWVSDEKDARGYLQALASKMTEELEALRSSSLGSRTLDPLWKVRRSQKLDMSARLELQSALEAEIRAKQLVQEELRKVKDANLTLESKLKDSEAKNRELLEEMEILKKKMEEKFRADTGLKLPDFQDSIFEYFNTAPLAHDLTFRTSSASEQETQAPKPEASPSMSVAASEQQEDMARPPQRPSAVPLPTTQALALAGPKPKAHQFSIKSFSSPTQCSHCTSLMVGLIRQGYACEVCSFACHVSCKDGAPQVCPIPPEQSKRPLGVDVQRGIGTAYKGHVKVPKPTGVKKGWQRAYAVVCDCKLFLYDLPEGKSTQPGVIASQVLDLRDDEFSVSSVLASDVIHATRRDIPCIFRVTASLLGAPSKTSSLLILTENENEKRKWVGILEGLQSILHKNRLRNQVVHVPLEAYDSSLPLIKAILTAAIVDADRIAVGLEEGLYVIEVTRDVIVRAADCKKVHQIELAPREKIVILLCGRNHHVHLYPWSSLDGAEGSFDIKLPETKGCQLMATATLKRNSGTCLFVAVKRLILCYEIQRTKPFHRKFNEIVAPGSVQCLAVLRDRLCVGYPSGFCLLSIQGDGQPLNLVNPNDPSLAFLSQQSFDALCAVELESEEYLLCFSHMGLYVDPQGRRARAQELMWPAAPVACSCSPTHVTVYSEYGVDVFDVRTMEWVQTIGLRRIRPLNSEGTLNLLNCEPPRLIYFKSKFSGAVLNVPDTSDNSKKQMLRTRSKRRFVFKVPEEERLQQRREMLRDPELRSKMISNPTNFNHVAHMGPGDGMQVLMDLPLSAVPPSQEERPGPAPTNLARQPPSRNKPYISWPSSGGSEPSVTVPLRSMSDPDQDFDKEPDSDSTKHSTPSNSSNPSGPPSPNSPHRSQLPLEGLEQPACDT
Sequence of Serine/threonine-protein kinase Nek2 (Homo sapiens) (P51955 whole entry): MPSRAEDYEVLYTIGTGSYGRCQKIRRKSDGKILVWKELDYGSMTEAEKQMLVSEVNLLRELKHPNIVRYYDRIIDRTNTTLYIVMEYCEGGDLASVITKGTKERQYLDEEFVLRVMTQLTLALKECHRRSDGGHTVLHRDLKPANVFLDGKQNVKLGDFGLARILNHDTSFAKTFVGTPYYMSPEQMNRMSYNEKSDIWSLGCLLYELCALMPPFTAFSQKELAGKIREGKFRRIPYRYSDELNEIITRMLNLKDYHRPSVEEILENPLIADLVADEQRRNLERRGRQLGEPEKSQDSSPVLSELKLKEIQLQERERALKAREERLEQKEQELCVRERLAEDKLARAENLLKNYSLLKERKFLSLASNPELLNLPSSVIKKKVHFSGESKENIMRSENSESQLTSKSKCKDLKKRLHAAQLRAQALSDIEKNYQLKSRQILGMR
Sequence of Inhibitor of nuclear factor kappa-B kinase subunit beta (Homo sapiens) (O14920 whole entry): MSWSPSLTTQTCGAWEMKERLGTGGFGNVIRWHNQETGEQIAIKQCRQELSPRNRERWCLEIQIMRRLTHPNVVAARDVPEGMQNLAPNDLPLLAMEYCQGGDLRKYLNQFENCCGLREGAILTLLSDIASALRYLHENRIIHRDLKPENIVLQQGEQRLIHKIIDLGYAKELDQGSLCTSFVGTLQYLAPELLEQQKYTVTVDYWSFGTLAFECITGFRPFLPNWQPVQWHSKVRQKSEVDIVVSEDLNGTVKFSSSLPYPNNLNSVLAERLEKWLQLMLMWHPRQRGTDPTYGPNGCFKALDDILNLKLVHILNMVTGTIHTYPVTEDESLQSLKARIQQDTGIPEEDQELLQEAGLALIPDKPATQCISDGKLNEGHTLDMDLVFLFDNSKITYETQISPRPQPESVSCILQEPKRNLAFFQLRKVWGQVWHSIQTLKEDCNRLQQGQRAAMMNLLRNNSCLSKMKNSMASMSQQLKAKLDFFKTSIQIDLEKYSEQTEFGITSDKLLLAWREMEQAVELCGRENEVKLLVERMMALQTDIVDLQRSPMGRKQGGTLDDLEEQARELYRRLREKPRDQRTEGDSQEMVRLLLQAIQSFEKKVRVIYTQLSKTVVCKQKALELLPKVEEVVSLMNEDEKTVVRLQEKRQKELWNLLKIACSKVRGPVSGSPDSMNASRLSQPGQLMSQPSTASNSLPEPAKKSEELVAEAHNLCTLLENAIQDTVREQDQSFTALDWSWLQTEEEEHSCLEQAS
Sequence of Tyrosine-protein kinase JAK3 (Homo sapiens) (P52333 whole entry): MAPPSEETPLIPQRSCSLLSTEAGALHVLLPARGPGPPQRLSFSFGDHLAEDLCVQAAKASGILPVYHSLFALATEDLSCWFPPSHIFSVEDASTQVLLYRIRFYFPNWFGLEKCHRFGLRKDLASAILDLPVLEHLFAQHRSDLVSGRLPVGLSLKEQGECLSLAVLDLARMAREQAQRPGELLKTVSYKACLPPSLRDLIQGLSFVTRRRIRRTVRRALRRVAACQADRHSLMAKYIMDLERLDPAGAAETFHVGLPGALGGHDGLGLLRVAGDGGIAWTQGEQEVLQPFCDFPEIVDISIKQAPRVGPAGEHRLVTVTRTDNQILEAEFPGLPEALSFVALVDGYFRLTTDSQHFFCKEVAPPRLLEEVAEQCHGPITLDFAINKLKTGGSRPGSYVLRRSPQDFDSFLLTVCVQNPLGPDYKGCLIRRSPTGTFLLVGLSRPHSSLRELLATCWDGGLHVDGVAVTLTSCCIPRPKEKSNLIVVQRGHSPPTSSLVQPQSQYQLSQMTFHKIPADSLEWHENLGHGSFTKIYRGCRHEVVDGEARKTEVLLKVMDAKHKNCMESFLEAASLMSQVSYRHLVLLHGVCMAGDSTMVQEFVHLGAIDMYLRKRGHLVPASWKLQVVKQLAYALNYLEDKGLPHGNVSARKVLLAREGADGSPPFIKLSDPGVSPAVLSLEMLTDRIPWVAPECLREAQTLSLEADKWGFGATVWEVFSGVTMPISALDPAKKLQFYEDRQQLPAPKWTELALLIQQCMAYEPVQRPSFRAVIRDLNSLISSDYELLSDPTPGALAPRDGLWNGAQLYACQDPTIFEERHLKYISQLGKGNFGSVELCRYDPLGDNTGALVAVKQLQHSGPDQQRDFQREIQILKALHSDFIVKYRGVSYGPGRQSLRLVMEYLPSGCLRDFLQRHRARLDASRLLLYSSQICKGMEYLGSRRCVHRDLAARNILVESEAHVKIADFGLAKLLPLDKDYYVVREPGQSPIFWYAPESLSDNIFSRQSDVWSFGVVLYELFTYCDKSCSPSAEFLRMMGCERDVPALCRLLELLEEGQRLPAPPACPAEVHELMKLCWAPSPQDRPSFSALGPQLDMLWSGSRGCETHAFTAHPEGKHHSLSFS

**Q.** S=c1[nH]nc(-c2ccncc2)n1-c1ccc2ccccc2c1 was tested. Which residual activity [1] did it give?
**A.** The residual activity was 110%.

**Q.** And the residual activity [2]?
**A.** Its residual activity is 114%.

**Q.** And the residual activity [3]?
**A.** The residual activity was 111%.

**Q.** And the residual activity [4]?
**A.** Its residual activity is 91%.

**Q.** What about the residual activity [5] of the same compound?
**A.** Its residual activity is 113%.

**Q.** And the residual activity [6]?
**A.** The residual activity was 106%.

**Q.** And the residual activity [7]?
**A.** The residual activity was 94%.

**Q.** And the residual activity [8]?
**A.** Its residual activity is 95%.

**Q.** And the residual activity [9]?
**A.** The residual activity was 112%.

**Q.** And the residual activity [10]?
**A.** Its residual activity is 108%.

**Q.** And the residual activity [11]?
**A.** The residual activity was 110%.

**Q.** What about the residual activity [12] of the same compound?
**A.** The residual activity was 102%.

**Q.** And the residual activity [13]?
**A.** Its residual activity is 103%.

**Q.** What about the residual activity [14] of the same compound?
**A.** The residual activity was 147%.

**Q.** And the residual activity [15]?
**A.** The residual activity was 136%.

**Q.** What about the residual activity [16] of the same compound?
**A.** The residual activity was 112%.

**Q.** And the residual activity [17]?
**A.** The residual activity was 100%.

**Q.** And the residual activity [18]?
**A.** The residual activity was 113%.

**Q.** What about the residual activity [19] of the same compound?
**A.** Its residual activity is 101%.

**Q.** And the residual activity [20]?
**A.** Its residual activity is 76%.

**Q.** And the residual activity [21]?
**A.** Its residual activity is 110%.

**Q.** And the residual activity [22]?
**A.** The residual activity was 106%.

**Q.** What about the residual activity [23] of the same compound?
**A.** Its residual activity is 110%.

**Q.** And the residual activity [24]?
**A.** The residual activity was 98%.
